Results taken from patent US10258701B2, “Labeled evans blue dye derivative for in vivo serum albumin labeling” (The United States of America, as represented by the …, priority 2015, dated 2019).

Experiments:
[1] = Multiple time point whole-body PET in healthy volunteers (SUV); format: in vivo, human
Method: (§1) This clinical study was approved by the Institute Review Board of Peking Union Medical College Hospital, Chinese Academy of Medical Sciences and Peking Union Medical College. Three healthy volunteers (2 males and 1 female) were enrolled with written informed consent to validate the safety of ^68Ga-NEB. No fasting, hydration or other specific preparation was requested on the day of imaging. Any unusual or adverse clinical symptoms were recorded on the day of imaging and during the 2-week follow-up period.
All three healthy volunteers underwent whole-body PET acquisitions (Biograph mCT PET/CT system, Siemens) at multiple time points after tracer injection. After the whole-body low-dose CT scan (140 kV, 35 mA, pitch 1:1, layer 5 mm, layer spacing 3 mm, matrix 512×512, FOV 70 cm), 111-148 MBq (3-4 mCi) of ^68Ga-NEB was injected intravenously. The whole body (from the top of skull to the middle of femur) of each volunteer was covered by 7 bed positions. The acquisition duration was 40 sec/bed position for the 5 min, 10 min and 15 min time points, 2 min/bed position for the 30 min, 45 min, 60 min, 75 min and 90 min time points.
(§2) A Siemens MMWP workstation was used for post-processing. Visual analysis was used to determine the general biodistribution and the temporal and inter-subject stability. The volume of interest (VOI) of 12 normal organs/tissues and concerned lesions were drawn on the serial images. The radioactivity concentration and standardized uptake value (SUV) in the VOIs were obtained through the software. Organ dosimetry was calculated by using organ-level internal dose assessment software. All quantitative data were expressed as mean±standard deviation.
From 5 to 90 min, no dramatic distribution change was observed, confirming the in vivo stability and long blood pool retention of ^68Ga-NEB (FIG. 28). Increased bladder accumulation was observed over time.

[2] = Ex vivo biodistribution in Balb/C mice with absorbed doses extrapolated to adult human male (OLINDA/EXM); details: mouse
Method: For ex vivo biodistribution and dosimetry evaluation, each BALB/C mouse was injected with 1.85 MBq of ^68Ga-NEB. At different time points after tracer injection (5 min, 30 min, 1 h, 3 h and 6 h, n=5/time point), the mice were sacrificed for tissue and organ collection, including blood, muscle, bone, liver, kidneys, spleen, pancreas, stomach, intestine, heart and lung. The samples were wet weighed, and measured for radioactivity in a γ-counter (Wallac 1470-002, Perkin-Elmer). The results were presented as percentage injected dose per gram of tissue (% ID/g). For each mouse, the radioactivity of the tissue samples was calibrated against a known aliquot of the injected tracer and normalized to a mean body mass of each group. Values were expressed as mean±SD (n=5/group). Determination of organ doses for a reference human was made using the OLINDA/EXM program (Vanderbilt University, Nashville, Tenn.).
In order to estimate the safe dose for clinical use, an ex vivo biodistribution study was performed in normal Balb/C mice. Absorbed doses for major organs and whole body were then extrapolated to adult human male of a body weight of 73.7 Kg using OLINDA EXM software. The kidneys received the highest absorbed doses (mean absorbed dose, 0.104˜0.135 mSv/MBq), resulting from abundant blood supply and tracer excretion through the renal urinary tract. The mean effective dose of ^68Ga-NEB was 0.0151 to 0.0159 mSv/MBq. With an injected dose of 185 MBq (5 mCi), the patient would be exposed to an effective radiation dose of 2.94 mSv, which is much lower than the dose limit of 20 mSv for the second risk category defined by the 2007 International Commission on Radiological Protection.

[3] = Safety observation in healthy volunteers and patients; format: in vivo, human
From the text: (§3) Dosimetry study confirmed the safety with acceptable absorbed doses by critical organs even with multiple injections for one patient.
as §1
Vessel branches in and out of major organs and limbs can also be clearly identified.

[4] = human, in vivo
From the text: as §3, §2
The mean absorbed radiation doses based on multiple time point PET imaging of three volunteers were similar to those based on mouse biodistribution data. The major organs that received relatively high doses were kidneys, liver, spleen, and heart wall. The bladder wall also received high exposure due to renal excretion of the radioactivity (0.0683±0.0090 mSv/MBq). The whole body absorbed dose was 0.0151±0.0001 mSv/MBq with an effective dose of 0.0179±0.0003 mSv/MBq.

Cc1cc(-c2ccc(NC(=O)CN3CCN4CCN(CC3)CC(=O)[O][68GaH][O]C(=O)C4)c(C)c2)ccc1N=Nc1ccc2c(S(=O)(=O)O)cc(S(=O)(=O)O)c(N)c2c1O [^68Ga-NEB]
average standardized uptake value, Pancreas ([1]; 60 min after i.v.): 1.43 ± 0.15
average standardized uptake value, S. Intestine ([1]; 60 min after i.v.): 1.47 ± 0.15
average standardized uptake value, Spleen ([1]; 60 min after i.v.): 3.73 ± 0.42
average standardized uptake value, Stomach ([1]; 60 min after i.v.): 1.10 ± 0.00
average standardized uptake value, Blood ([1]; 75 min after i.v.): 6.03 ± 0.12
average standardized uptake value, Bone ([1]; 75 min after i.v.): 1.27 ± 0.12
average standardized uptake value, Kidneys ([1]; 75 min after i.v.): 3.43 ± 0.15
average standardized uptake value, Liver ([1]; 75 min after i.v.): 3.43 ± 0.49
average standardized uptake value, Lung ([1]; 75 min after i.v.): 1.10 ± 0.17
average standardized uptake value, Muscle ([1]; 75 min after i.v.): 0.47 ± 0.06
average standardized uptake value, Pancreas ([1]; 75 min after i.v.): 1.37 ± 0.21
average standardized uptake value, S. Intestine ([1]; 75 min after i.v.): 1.33 ± 0.21
average standardized uptake value, Spleen ([1]; 75 min after i.v.): 4.93 ± 2.10
average standardized uptake value, Stomach ([1]; 75 min after i.v.): 1.07 ± 0.12
average standardized uptake value, Blood ([1]; 90 min after i.v.): 5.97 ± 0.15
average standardized uptake value, Bone ([1]; 90 min after i.v.): 1.23 ± 0.15
average standardized uptake value, Kidneys ([1]; 90 min after i.v.): 3.30 ± 0.20
average standardized uptake value, Liver ([1]; 90 min after i.v.): 3.33 ± 0.58
average standardized uptake value, Lung ([1]; 90 min after i.v.): 1.07 ± 0.12
average standardized uptake value, Muscle ([1]; 90 min after i.v.): 0.77 ± 0.64
average standardized uptake value, Pancreas ([1]; 90 min after i.v.): 1.37 ± 0.31
average standardized uptake value, S. Intestine ([1]; 90 min after i.v.): 1.17 ± 0.32
average standardized uptake value, Spleen ([1]; 90 min after i.v.): 3.57 ± 0.55
average standardized uptake value, Stomach ([1]; 90 min after i.v.): 1.03 ± 0.15
crossing of the blood-brain barrier ([1]; PET, normal brain tissue negligible accumulation): does not cross the blood-brain barrier
Absorbed Dose, Adrenals ([2]; BALB/c): 0.0137~0.0141 mSv/MBq
Absorbed Dose, Breasts ([2]; BALB/c): 0.00881~0.01 mSv/MBq
Absorbed Dose, Gallbladder Wall ([2]; BALB/c): 0.0147~0.0149 mSv/MBq
Absorbed Dose, Heart Wall ([2]; BALB/c): 0.0329~0.0453 mSv/MBq
Absorbed Dose, LLI Wall ([2]; BALB/c): 0.0104~0.0119 mSv/MBq
Absorbed Dose, Liver ([2]; BALB/c): 0.0444~0.0575 mSv/MBq
Absorbed Dose, Lungs ([2]; BALB/c): 0.0197~0.0236 mSv/MBq
Absorbed Dose, Muscle ([2]; BALB/c): 0.00946~0.011 mSv/MBq
Absorbed Dose, Osteogenic Cells ([2]; BALB/c): 0.0133~0.0153 mSv/MBq
Absorbed Dose, Ovaries ([2]; BALB/c): 0.0108~0.0122 mSv/MBq
Absorbed Dose, Pancreas ([2]; BALB/c): 0.0625~0.0821 mSv/MBq
Absorbed Dose, Red Marrow ([2]; BALB/c): 0.00882~0.00973 mSv/MBq
Absorbed Dose, Skin ([2]; BALB/c): 0.00804~0.00925 mSv/MBq
Absorbed Dose, Small Intestine ([2]; BALB/c): 0.0114~0.0128 mSv/MBq
Absorbed Dose, Spleen ([2]; BALB/c): 0.0263~0.0317 mSv/MBq
Absorbed Dose, Stomach Wall ([2]; BALB/c): 0.0117~0.0127 mSv/MBq
Absorbed Dose, Testes ([2]; BALB/c): 0.00896~0.0103 mSv/MBq
Absorbed Dose, Thymus ([2]; BALB/c): 0.0101~0.0112 mSv/MBq
Absorbed Dose, Thyroid ([2]; BALB/c): 0.00936~0.0107 mSv/MBq
Absorbed Dose, Total Body ([2]; BALB/c): 0.0146~0.0146 mSv/MBq
Absorbed Dose, ULI Wall ([2]; BALB/c): 0.0115~0.0128 mSv/MBq
Absorbed Dose, Urinary Bladder Wall ([2]; BALB/c): 0.0102~0.0117 mSv/MBq
Absorbed Dose, Uterus ([2]; BALB/c): 0.0108~0.0123 mSv/MBq
Effective Dose Equivalent ([2]; BALB/c): 0.0251~0.0297 mSv/MBq
effective radiation dose to the patient [2]: 2.94 mSv
reported discomfort, adverse clinical events, toxicity, allergies ([3]; all healthy volunteers and patients): no discomfort or adverse clinical events, no elicited toxicity, and no allergies
adverse symptoms during the entire procedure and 2 weeks follow-up ([3]; healthy volunteers, mean injected dose 3.77±0.28 mCi): no adverse symptoms were noticed and/or reported
effective dose [4]: 0.0179±0.0003 mSv/MBq
mean absorbed radiation dose, bladder wall [4]: 0.0683±0.0090 mSv/MBq
radiation dose a patient would be exposed to [4]: 2.65 mSv
whole body absorbed dose [4]: 0.0151±0.0001 mSv/MBq
